System: mice
Experiment: Innate behavioral response to odorant in odor box (3D depth imaging, AR-HMM)
Format: in vivo, mouse

Q: Which results are given for `CC1=NC(C)SC1C` (stereo not drawn) [TMT]?
A: behavioral response to odor-containing quadrant (TMT delivered to one quadrant of the box via olfactometer): avoided the quadrant containing the predator cue and displayed prolonged periods of immobility; per frame entropy rate with self-transitions (after TMT exposure): 0.64±0.02 bits; per frame entropy rate without self-transitions (after TMT exposure): 3.66±0.08 bits; number of times the most commonly-expressed freezing trigram was expressed (after TMT exposure, in 300 minutes of imaging): 716 times; average during-sequence velocity of freezing sequences (mice in square box, TMT 5% delivered to one quadrant, newly concatenated pausing modules): −0.14±0.54 mm/sec; behavioral modules introduced or eliminated relative to control (n=15 in TMT, n=25 control, model co-trained): no new modules were introduced or eliminated relative to control

From patent publication US11944429B2, “Automatically classifying animal behavior” (President and Fellows of Harvard College, priority 2015, dated 2024)
